From patent US20230136218A1, “METHODS AND COMPOSITIONS FOR TREATING ACUTE MYELOID LEUKEMIA” (President and Fellows of Harvard College, priority 2019, published 2023)
Entries after “also recorded” stand apart in the source; their conditions may differ.

Experiments:
MLL-AF9 AML = test: Kaplan-Meier survival of MLL-AF9 AML-bearing mice; format: in vivo, mouse
From the text: (§1) The MLL-AF9 and HoxA9/Meis1 leukemia models have been described previously (Sykes et al., 2016). Briefly, the MLL-AF9 model was established by crossing MLL-AF9 knockin mice (Corral et al., 1996) with mice expressing GFP under the control of the ubiquitin promoter as well as mice expressing luciferase under the control of the β-actin promoter. The retroviral transduction model of HoxA9/Meis1 leukemia was generated by the infection of bone marrow mononuclear cells with an MSCV-HoxA9-IRES-Meis1 construct (originally designed by Dr. Guy Sauvageau; Kroon et al., 1998). For both models, leukemic bone marrow cells from a terminally ill mouse were harvested and expanded ex vivo in RPMI1640 medium (Lonza) supplemented with 10% fetal bovine serum (FBS; Gibco), 100 I.U./ml penicillin, 100 μg/ml streptomycin, 2 mM L-glutamine (all from Corning), 20 ng/ml recombinant mouse SCF (rmSCF), 10 ng/ml recombinant mouse interleukin 3 (rmIL-3) and […] (all from R&D Systems).
(§2) Recipient male mice (age 8-10 weeks) were injected intravenously (retro-orbital) with 1 million leukemia cells in a volume of 100 μl of saline. Disease progression was tracked intravitally using bioluminescence imaging. Mice were anaesthetized using isoflurane, injected with luciferin (150 μl of a 15 mg/ml solution in PBS), and imaged on an IVIS 200 Spectrum In Vivo Imaging System (PerkinElmer). When indicated, mice were treated with iCT (cytarabine, 100 mg/kg, once daily for 5 days and doxorubicin, 3 mg/kg, once daily for the first 3 days) or vehicle (saline) delivered via I.P. injection. To inhibit glutamine metabolism, mice were treated with DON (0.3 mg/kg, once daily) or vehicle (saline) delivered via I.P. injection. To inhibit GLS, mice were treated with a GLS inhibitor (150 mg/kg, twice daily) or vehicle (20% HP-β-cyclodextrin+20% Solutol, 50 mM citrate buffer, pH 3) delivered by oral gavage. To inhibit DHODH, mice were treated with BRQ (50 mg/kg, once daily) or vehicle (70% PBS, 30% poly(ethylene glycol)-400, pH 7.2) delivered via I.P. injection. To inhibit GCL, mice were treated with BSO (twice daily by I.P. injection at 2.23 mg/kg+in the drinking water at 4.45 mg/ml) or vehicle (saline by I.P. injection+untreated drinking water).

HoxA9/Meis1 AML = test: Kaplan-Meier survival of HoxA9/Meis1 AML-bearing mice; format: in vivo, mouse
From the text: as §1
(§3) Recipient male mice (age 8-10 weeks) were injected intravenously (retro-orbital) with 1 million leukemia cells in a volume of 100 μl of saline. Disease progression was tracked intravitally using bioluminescence imaging. Mice were anaesthetized using isoflurane, injected with luciferin (150 μl of a 15 mg/ml solution in PBS), and imaged on an IVIS 200 Spectrum In Vivo Imaging System (PerkinElmer). […]

MLL-AF9 AML cells [1] = test: AML burden of MLL-AF9 AML-bearing mice by bioluminescence imaging or flow cytometry; format: in vivo, mouse
Procedure: as §2, with “To inhibit DHODH, mice were treated with BRQ (50 mg/kg, once daily) or vehicle (70% PBS, 30% poly(ethylene glycol)-400, pH 7.2) delivered via I.P. injection. To inhibit GCL, mice were treated with BSO (twice daily by I.P. injection at 2.23 mg/kg+in the drinking water at 4.45 mg/ml) or vehicle (saline by I.P. injection+untreated drinking water).” left out
(§4) Cells were suspended in flow buffer and stained for 30 minutes at 4° C. in the dark with antibodies against c-Kit, Sca-1, CD34, CD45, Ter-119, CD31, LepR, CD90, CD105, SLC1A3, SLC38A1 or a lineage cocktail (CD3, Gr-1, CD11b, B220, Ter-119). […] Cell viability was analyzed using Annexin V-APC (BioLegend) and propidium iodide (PI; ThermoFisher Scientific) with Annexin V^−PI^− cells considered as viable cells. The number of viable cells was determined by taking into account the total number of cells per well as measured using a Cellometer (Nexcelom). Mitochondrial membrane potential was measured by Tetramethylrhodamine, ethyl ester (TMRE; ThermoFisher) staining and levels of ROS were measured by CellROX Orange staining. Cells were incubated with 200 nM TMRE or 2.5 μM CellROX Orange in RPMI1640 medium supplemented with 10% FBS, 100 I.U./ml penicillin, 100 μg/ml streptomycin and 2 mM L-glutamine at 37° C. for 30 minutes, washed in flow buffer and analyzed. For all flow cytometry experiments, single color controls were used to set compensations and fluorescence minus one controls were used to set gates. […]

MLL-AF9 AML cells [2] = test: Flow cytometric quantification of CD34 and cKit levels in AML cells obtained from treated mice; format: in vivo, mouse
Procedure: as §2
Cells were suspended in flow buffer and stained for 30 minutes at 4° C. in the dark with antibodies against c-Kit, Sca-1, CD34, CD45, Ter-119, CD31, LepR, CD90, CD105, SLC1A3, SLC38A1 or a lineage cocktail (CD3, Gr-1, CD11b, B220, Ter-119). 7-AAD was included as a viability dye to help identify dead cells. When necessary, cells were stained with a secondary antibody (Alexa Fluor 546-conjugated anti-rabbit IgG) or APC-eFluor 780-conjugated streptavidin (eBioscience) for 15 minutes at 4° C. in the dark. […] Cell viability was analyzed using Annexin V-APC (BioLegend) and propidium iodide (PI; ThermoFisher Scientific) with Annexin V^−PI^− cells considered as viable cells. The number of viable cells was determined by taking into account the total number of cells per well as measured using a Cellometer (Nexcelom). Mitochondrial membrane potential was measured by Tetramethylrhodamine, ethyl ester (TMRE; ThermoFisher) staining and levels of ROS were measured by CellROX Orange staining. Cells were incubated with 200 nM TMRE or 2.5 μM CellROX Orange in RPMI1640 medium supplemented with 10% FBS, 100 I.U./ml penicillin, 100 μg/ml streptomycin and 2 mM L-glutamine at 37° C. for 30 minutes, washed in flow buffer and analyzed. For all flow cytometry experiments, single color controls were used to set compensations and fluorescence minus one controls were used to set gates. All flow cytometry data was collected on a BD LSR II flow cytometer and analyzed using FlowJo software.

MLL-AF9 AML cells [3] = test: Colony forming unit assay of AML cells obtained from treated mice; format: in vivo, mouse
Procedure: as §2, with “water). […] FACS-sorted viable AML cells (GFP^+7-AAD^−) were resuspended in MethoCult GF M3434 (StemCell Technologies) at 1000 cells/ml and plated in SmartDish 6-well plates (StemCell Technologies) at 1 ml/well in duplicate. Cells were cultured in a humidified incubator at 37° C. in ambient air with 5% CO2. After 5 days colonies were counted.” for “water).”

[4] = tested on: pyrimidine synthesis in HoxA9/Meis1 AML cells; test: LC-MS-based quantification of glutamine metabolism and pyrimidine synthesis metabolites in HoxA9/Meis1 AML cells of treated mice; format: in vivo, mouse; details: mice treated with vehicle or BRQ 24 prior
Procedure: as §2, with “To inhibit GCL, mice were treated with BSO (twice daily by I.P. injection at 2.23 mg/kg+in the drinking water at 4.45 mg/ml) or vehicle (saline by I.P. injection+untreated drinking water).” left out
(§5) For untargeted metabolomics analysis, data were processed with Compound Discoverer 3.0 (ThermoFisher Scientific) using the mzCloud mass spectral library for compound annotation. […] For targeted metabolomics analysis, data were analyzed with Tracefinder4.1 (ThermoFisher Scientific).

MLL-AF9 AML cells [5] = test: Double-stranded DNA breaks in MLL-AF9 AML cells of treated mice, flow cytometry for gamma-H2AX; format: in vivo, mouse; details: short term DON after iCT; one day after the last dose of DON
Procedure: as §3, with “(PerkinElmer). When indicated, mice were treated with iCT (cytarabine, 100 mg/kg, once daily for 5 days and doxorubicin, 3 mg/kg, once daily for the first 3 days) or vehicle (saline) delivered via I.P. injection.” for “(PerkinElmer).”
as §4, with “staining.” for “staining. Cells were incubated with 200 nM TMRE or 2.5 μM CellROX Orange in RPMI1640 medium supplemented with 10% FBS, 100 I.U./ml penicillin, 100 μg/ml streptomycin and 2 mM L-glutamine at 37° C. for 30 minutes, washed in flow buffer and analyzed. For all flow cytometry experiments, single color controls were used to set compensations and fluorescence minus one controls were used to set gates.”

[6] = tested on: glutamine metabolism in MLL-AF9 AML cells; test: LC-MS-based quantification of metabolites in MLL-AF9 AML cells of treated mice; format: in vivo, mouse; details: one day after the last dose of DON
Procedure: as §2
Mice were euthanized by CO2 asphyxiation and femurs and tibias were isolated and cleaned to remove muscle. Bones were then crushed using a mortar and pestle in ice-cold flow buffer (PBS containing 2% FBS), and the obtained cell suspension was passed through a 70 μm cell strainer. Red blood cells were removed by incubating cells for 5 minutes in ACK lysing buffer (Gibco) on ice, cells were washed and resuspended in ice-cold flow buffer containing the viability dye 7-aminoactinomycin D (7-AAD; BD Biosciences). Viable AML cells (GFP^+7-AAD^−) were sorted on a BD FACSAria II (BD Biosciences) with the sample collector cooled to 4° C. Sorted cells were immediately processed.
FACS-sorted cells or plasma samples were lysed in ice-cold methanol and polar metabolites were extracted using methanol-chloroform phase separation (methanol:water:chloroform in 2:1:2 ratio). Samples were then dried under nitrogen flow, resuspended in 70% acetonitrile in water containing 2.5 μM of an internal standard (^13C-, ^15N-labeled amino acid mix; Cambridge Isotope Laboratories) and run on a ThermoFisher Q-exactive equipped with Zic-pHILIC column (150×2.1 mm, 5 μm; Merck). A volume of 5 μl was injected and the full mass spectrum was obtained in both positive and negative mode (0 to 45 minutes, resolution 70000, AGC target 3e6, mz range 66 to 990). Mobile phase A for chromatography consisted of 20 mM ammonium carbonate, 0.1% ammonium hydroxide, in water and mobile phase B of 97% acetonitrile in water. For untargeted metabolomics, a pooled sample was created from all samples and used for MS/MS runs. For targeted analysis, a standard mix at 1 μM of each compound of interest was prepared and run after the samples to confirm retention times.
as §5

[7] = Tolerability of DON in AML-bearing mice; format: in vivo, mouse
Procedure: as §2

MLL-AF9 AML cells [8] = test: Apoptotic cells in MLL-AF9 AML cells of treated mice, flow cytometry for active Caspase 3; format: in vivo, mouse; details: combination of iCT and DON (sequential); one day after the last dose of DON
Procedure: as §2

HoxA9/Meis1 AML cells = test: AML cell elimination in HoxA9/Meis1 AML-bearing mice; format: in vivo, mouse; details: DON after completion of iCT
Procedure: as §2

[9] = tested on: solid tumors and leukemia; details: Phase I and II clinical trials, cited from earlier work
[10] = agent alone, compared to vehicle-treated mice
[11] = combination with iCT (sequential), four days after the last dose of iCT

Cc1c(-c2ccc(-c3ccccc3F)cc2)nc2ccc(F)cc2c1C(=O)O [BRQ, brequinar]
survival (MLL-AF9 AML; two doses of BRQ 50 mg/kg I.P. following iCT, compared to iCT alone): significantly extend survival; also recorded: extended survival
survival (MLL-AF9 AML; two doses of BRQ 50 mg/kg I.P. following iCT, compared to iCT alone, listed as brequinar): remarkably extend animal survival
survival (HoxA9/Meis1 AML; BRQ 50 mg/kg I.P. following iCT, compared to iCT alone (FIG. 19E)): significantly extend survival
elimination of AML cells from the bone marrow (MLL-AF9 AML cells [1]; short term BRQ after iCT, four days after the last dose of iCT): improved elimination of AML cells from the bone marrow
percentage of CD34+cKit+ cells (MLL-AF9 AML cells [2]; [10]): strongly reduced
percentage of CD34-cKit+ cells (MLL-AF9 AML cells [2]; combination with iCT, compared to BRQ alone): further reduced
number of colony-forming units (CFUs) (MLL-AF9 AML cells [3]; [10]): strongly reduced
number of colony-forming units (CFUs) (MLL-AF9 AML cells [3]; [11]): further reduced
pyrimidine synthesis (metabolite levels) [4]: effectively inhibits pyrimidine synthesis

CCCCS(=N)(=O)CCC(N)C(=O)O [BSO, L-buthionine-sulfoximine]
survival (MLL-AF9 AML; BSO (2.23 mg/kg B.I.D. I.P. + 4.45 mg/ml in drinking water) for 4 days following iCT, compared to iCT alone): no difference in survival compared to iCT alone

[N-]=[N+]=CC(=O)CC[C@H](N)C(=O)O [DON, 6-diazo-5-oxo-L-norleucine]
survival (MLL-AF9 AML; DON 0.3 mg/kg I.P. given for 5 days at the same time as iCT (concomitant)): no difference in survival
survival (MLL-AF9 AML; DON 0.3 mg/kg I.P. started after completion of iCT, covering the moment of maximal response, daily for a short time or continuously every other day): clear survival benefit; also recorded: improved survival
survival, DON every other day compared to short term DON treatment (MLL-AF9 AML; DON every other day following iCT): further improved mouse survival
survival (HoxA9/Meis1 AML; two doses of DON 0.3 mg/kg I.P. after completion of iCT): improved mouse survival
relapse (MLL-AF9 AML cells [1]; short term DON after iCT, bioluminescence imaging): delayed relapse
elimination of AML cells (AML burden) (MLL-AF9 AML cells [1]; short term DON after iCT, one day after the last dose of DON): improved elimination of AML cells; also recorded: reduced the number of chemoresistant cells
double stranded DNA breaks in residual cells (gamma-H2AX) (MLL-AF9 AML cells [5]): increased double stranded DNA breaks
UMP levels in chemoresistant AML cells ([6]; DON after iCT): prevented the increase of UMP levels
glutamate level in AML cells ([6]; DON after iCT): normalizing the increase in glutamate; also recorded: partially reducing the increase in glutamate
reduced glutathione (GSH) levels in AML cells ([6]; DON after iCT): effective in suppressing the increase in GSH levels
aspartate level in AML cells ([6]; iCT followed by DON): remained high
glutamine level in AML cells ([6]; mice treated with iCT and/or DON): accumulation of glutamine
percentage of CD34+cKit+ cells (MLL-AF9 AML cells [2]; [10]): no effect on marker expression
percentage of CD34+cKit+ cells (MLL-AF9 AML cells [2]; [11]): normalized
number of colony-forming units (CFUs) (MLL-AF9 AML cells [3]; [10]): moderately increased the number of CFUs
number of colony-forming units (CFUs) (MLL-AF9 AML cells [3]; [11]): normalized
tolerability ([7]; DON every other day after iCT): acceptable
tolerability / toxicity ([7]; daily DON injections after iCT): toxicity issues; also recorded: did not tolerate
percentage of apoptotic cells (active Caspase 3) (MLL-AF9 AML cells [8]): more apoptotic cells
AML cell elimination (HoxA9/Meis1 AML cells): enhanced AML cell elimination
clinical side effects [9]: dose-dependent side effects including nausea, vomiting and mucositis
clinical efficacy ([9]; single agent): limited efficacy as a single agent
